Laboratory results from patent US7803797B2, “Substituted arylcyclopentenes as therapeutic agents” (Allergan, Inc., priority 2008, dated 2010).

Experiments:
Type in all cases: in vivo
[1] = test system: laser-induced hypertensive monkeys; experiment: Intraocular pressure (IOP) reduction in laser-induced hypertensive monkeys
[2] = test system: normotensive dogs; experiment: Intraocular pressure (IOP) reduction in normotensive dogs
Method: Compounds 14a, 14b, 16a, 16b. 22a, 22b, 33a, 33b, 34a, 34b, 35a, 35b, 46a, 46b, 51a, 51 b, 58a, 58b, 69a, 69b, 70a and 70b from above are tested in vivo to measure its ability to reduce intraocular pressure. Compound 14a is tested in normotensive dogs.

[3] = test system: lashes and adjacent hairs of the eyelids; experiment: Clinical observation of lashes in glaucoma patients treated in one eye; details: glaucoma patients treated in only one eye
From the text: In the course of treating patients having glaucoma, treatment may only be appropriate in one eye. […] The lash appearance on the lids of the treated eyes would have appeared quite attractive if it represented a bilateral phenomenon. As a result of its asymmetric nature, the long lashes on one side could be construed as disturbing from a cosmetic standpoint. A systemic examination was preformed as a result of the asymmetric phenomenon. It soon became apparent that this altered appearance was not an isolated finding. […] Definite differences could be identified to varying degrees in the lashes and adjacent hairs of all patients who were taking the drug on a unilateral basis for longer than 6 months.
The changes in the lashes were apparent on gross inspection in several patients once attention was focused on the issue. In those with light colored hair and lashes, the differences were only seen easily with the aid of the high magnification and lighting capabilities of the slit lamp biomicroscope. In the course of glaucoma follow-up examination, attention is generally immediately focused on the eye itself. As a result of the high power magnification needed only one eye is seen at a time and the eye is seen at a high enough power that the lashes are not in focus. […]

| SMILES | IOP change from baseline [1] | intraocular pressure (IOP) change from baseline [2] | lash appearance, treated eye versus non-treated eye [3] |
| --- | --- | --- | --- |
| O=C(OCCN1CCOCC1)c1ccc(CCC[C@@H]2[C@@H](COc3cc(Cl)cc(CO)c3)CC[C@H]2Cl)s1 [51 b] | decreases from baseline | decreases from baseline | – |
| O=C(OCCO)c1ccc(CCC[C@@H]2[C@@H](COc3cc(Cl)cc(Cl)c3)[C@H](O)C[C@H]2Cl)s1 [Compound 33a] | decreases from baseline | decreases from baseline | – |
| CC(=O)OCCc1cc(Cl)cc(OC[C@@H]2[C@@H](C/C=C\CCCC(=O)OCCN3CCOCC3)[C@H](Cl)C[C@H]2O)c1 [Compound 16b] | decreases from baseline | decreases from baseline | – |
| CCNC(=O)CCC/C=C\C[C@@H]1[C@@H](/C=C/[C@@H](O)CCc2ccccc2)[C@H](O)C[C@@H]1O [bimatoprost] | – | – | longer, thicker, and fuller in the treated eye than in the non-treated eye |
| O=C(OCCN1CCOCC1)c1ccc(CCC[C@@H]2[C@@H](COc3cc(Cl)cc(Cl)c3)[C@H](O)C[C@H]2F)s1 [Compound 70b] | decreases from baseline | decreases from baseline | – |
| O=C(OCCN1CCOCC1)c1ccc(CCC[C@@H]2[C@@H](COc3cc(Cl)cc(Cl)c3)[C@H](O)C[C@H]2Cl)s1 [Compound 33b] | decreases from baseline | decreases from baseline | – |
| O=C(OCCN1CCOCC1)c1ccc(CCCC2=CC[C@@H](O)[C@@H]2COc2cc(Cl)cc(Cl)c2)s1 [Compound 69b] | decreases from baseline | decreases from baseline | – |
| COCc1cc(Cl)cc(OC[C@@H]2[C@@H](C/C=C\CCCC(=O)OCCO)[C@H](Cl)C[C@H]2O)c1 [Compound 22a] | decreases from baseline | decreases from baseline | – |
| O=C(OCCN1CCOCC1)c1ccc(CCC[C@H]2C(=O)CC[C@@H]2COc2cc(Cl)cc(CO)c2)s1 [Compound 46b] | decreases from baseline | decreases from baseline | – |
| O=C(CCC/C=C\C[C@@H]1[C@@H](COc2cc(Cl)cc(CCO)c2)[C@H](O)C[C@H]1Cl)OCCO [Compound 14a] | decreases from baseline | decreases from baseline | – |
| Cc1cc(C)cc(OC[C@@H]2[C@@H](CCCc3ccc(C(=O)OCCN4CCOCC4)s3)[C@H](Cl)C[C@H]2O)c1 [Compound 35b] | decreases from baseline | decreases from baseline | – |
| O=C(CCC/C=C\C[C@@H]1[C@@H](COc2cc(Cl)cc(CCO)c2)[C@H](O)C[C@H]1Cl)OCCN1CCOCC1 [Compound 14b] | decreases from baseline | decreases from baseline | – |
| O=C(OCCO)c1ccc(CCC[C@H]2C(=O)CC[C@@H]2COc2cc(Cl)cc(CO)c2)s1 [Compound 46a] | decreases from baseline | decreases from baseline | – |
| COCc1cc(Cl)cc(OC[C@@H]2[C@@H](C/C=C\CCCC(=O)OCCN3CCOCC3)[C@H](Cl)C[C@H]2O)c1 [Compound 22b] | decreases from baseline | decreases from baseline | – |
| O=C(OCCO)c1ccc(CCC[C@@H]2[C@@H](COc3cc(Cl)cc(CO)c3)CC[C@H]2Cl)s1 [Compound 51a] | decreases from baseline | decreases from baseline | – |
| N#C[C@@H]1C[C@@H](O)[C@H](COc2cc(Cl)cc(Cl)c2)[C@H]1CCCc1ccc(C(=O)OCCN2CCOCC2)s1 [Compound 58b] | decreases from baseline | decreases from baseline | – |
| Cc1cc(C)cc(OC[C@@H]2[C@@H](CCCc3ccc(C(=O)OCCO)s3)[C@H](Cl)C[C@H]2O)c1 [Compound 35a] | decreases from baseline | decreases from baseline | – |
| O=C(OCCO)c1ccc(CCC[C@@H]2[C@@H](COc3cc(Cl)cc(Cl)c3)[C@H](O)C[C@H]2F)s1 [Compound 70a] | decreases from baseline | decreases from baseline | – |
| CC(=O)OCCc1cc(Cl)cc(OC[C@@H]2[C@@H](C/C=C\CCCC(=O)OCCO)[C@H](Cl)C[C@H]2O)c1 [Compound 16a] | decreases from baseline | decreases from baseline | – |
| N#C[C@@H]1C[C@@H](O)[C@H](COc2cc(Cl)cc(Cl)c2)[C@H]1CCCc1ccc(C(=O)OCCO)s1 [Compound 58a] | decreases from baseline | decreases from baseline | – |
| O=C(OCCO)c1ccc(CCCC2=CC[C@@H](O)[C@@H]2COc2cc(Cl)cc(Cl)c2)s1 [Compound 69a] | decreases from baseline | decreases from baseline | – |
